Our source for the IC50 and EC50 values is patent publication US9221814B2, “Heterocyclic guanidine F1F0-atpase inhibitors and therapeutic uses thereof” (Lycera Corporation, priority 2012, dated 2015).

One experiment has as its target T1, F1F0-ATPase (Bos taurus, UniProt P13621).
T1 construct: from tissue
Put plainly: Inhibition of F1F0-ATPase activity in synthesizing ATP (ATP synthesis inhibition). The class given is biochemical. The following applies: detection limit IC50=16 μM, read-out: ATP Syn IC50. How it is done: (§1) Exemplary compounds described in above Examples were tested for activity against F1F0-ATPase by measuring the ability of the compounds to inhibit ATP synthesis. In addition, the compounds were assessed for cytotoxicity in Ramos cells. Inhibition of F1F0-ATPase activity in synthesizing ATP and cytotoxicity in Ramos cells were measured according to the procedures described in K. M. Johnson et al. Chemistry & Biology 2005, 12, 485-496.

The test system of another experiment is Ramos cells. The experiment can be described thus: Cytotoxicity in Ramos cells. Format: cell-based. The note with it: detection limit EC50=16 μM, read-out: Ramos Cell EC50. On the procedure:
as §1

Structures are written as SMILES. pEC50, pIC50: −log10 of the molar value. Read-outs that look alike come from different tables or passages of the source. Some results are limits rather than exact numbers.

As for `COc1ccc(-c2cc(NC(=NC(=O)c3cn(C)nc3C(F)(F)F)Nc3ccc(F)c(Cl)c3)[nH]n2)cc1F` [Compound A-155], the pIC50 at F1F0-ATPase is over 5.30. Moreover, the pEC50 in the experiment with Ramos cells (Homo sapiens) is under 4.80.

With `CCOC(=O)NC1CCC(N/C(=N/C(=O)c2cn(C)nc2C(F)(F)F)Nc2cc(F)cc(Cl)c2)CC1` (stereo not drawn) [Compound A-219], the pIC50 on F1F0-ATPase is 4.80 to 5.30. The pEC50 in the experiment on Ramos cells (Homo sapiens) was 4.80 to 5.30.

With `COC[C@H](C)N/C(=N/C(=O)c1cn(C)nc1C(F)(F)F)Nc1cc(-c2ccc(OC)c(F)c2)n[nH]1` [Compound A-132], the pIC50 at F1F0-ATPase is 4.80 to 5.30. Further, in the experiment with Ramos cells, the pEC50 is 4.80 to 5.30.

`Cc1oncc1C(=O)/N=C(\Nc1cc(-c2ccc(F)cc2)[nH]n1)NC1CCC1` [Compound A-125]: the pIC50 at F1F0-ATPase is under 4.80. For the same compound, in the experiment on Ramos cells, the pEC50 is under 4.80.

In the case of `CCn1nc(C)cc1C(=O)/N=C(\Nc1cc(-c2ccc(F)cc2)n[nH]1)NC(C)C` [Compound A-54], on F1F0-ATPase, the pIC50 was over 5.30. The pEC50 in the experiment on Ramos cells is over 5.30.

In the case of `Cn1cc(C(=O)/N=C(\Nc2cc(-c3ccc(O)cc3F)[nH]n2)NC(C)(C)C)c(C(F)(F)F)n1` [Compound A-136], at F1F0-ATPase, the pIC50 is over 5.30. Also, the pEC50 in the experiment with Ramos cells is over 5.30.

For the compound `Cc1oncc1C(=O)/N=C(\Nc1cc(-c2cc(F)cc(Cl)c2)n[nH]1)NC(C)(C)C` [Compound A-96], the pIC50 at F1F0-ATPase was over 5.30. For the same compound, the pEC50 with Ramos cells is over 5.30.

With `COc1ccc(-c2cc(N/C(=N\C(=O)c3cn(C)nc3C(F)(F)F)Nc3cccc(F)c3)[nH]n2)cc1F` [Compound A-157], the pIC50 on F1F0-ATPase was over 5.30. Besides, the pEC50 in the experiment with Ramos cells was 4.80 to 5.30.

For the compound `Cc1oncc1C(=O)/N=C(\Nc1cc(-c2cc(F)cc(F)c2)n[nH]1)NC(C)(C)C` [Compound A-87], the pIC50 at F1F0-ATPase was over 5.30. Also, the negative-log EC50 (pEC50) in the experiment on Ramos cells is over 5.30.

Regarding `CC(C)N/C(=N/C(=O)c1cc(C(C)(C)C)nn1C)Nc1cc(-c2ccc(F)cc2)n[nH]1` [Compound A-49], the pIC50 at F1F0-ATPase was over 5.30. The pEC50 in the experiment with Ramos cells is over 5.30.

In the case of `Cc1oncc1C(=O)/N=C(/NCc1ccc(F)cc1Cl)Nc1cc(-c2ccc(Cl)cc2)n[nH]1` [Compound A-85], the negative-log IC50 (pIC50) at F1F0-ATPase is 4.80 to 5.30. The pEC50 in the experiment with Ramos cells was 4.80 to 5.30.

With `Cc1oncc1C(=O)/N=C(/NCC(C)C)Nc1cc(-c2ccc(Cl)cc2)n[nH]1` [Compound A-69], the pIC50 at F1F0-ATPase was under 4.80. For the same compound, in the experiment on Ramos cells, the pEC50 is under 4.80.

Turning to `Cc1cc(C(=O)/N=C(\Nc2cc(-c3cc(F)cc(F)c3)[nH]n2)NC(C)C)c(C(F)(F)F)o1` [Compound A-117], the pIC50 at F1F0-ATPase is over 5.30. The pEC50 in the experiment on Ramos cells was 4.80 to 5.30.

As for `Cc1cc(C(=O)/N=C(/NCC(C)C)Nc2cc(-c3ccc(Cl)cc3)n[nH]2)n(C)n1` [Compound A-66], the pIC50 at F1F0-ATPase was over 5.30. In the experiment with Ramos cells, the pEC50 is over 5.30.

With `CCCn1ccc(C(=O)N=C(Nc2cc(-c3ccc(F)cc3)n[nH]2)NC(C)C)n1` [Compound A-59], the pIC50 at F1F0-ATPase was 4.80 to 5.30. The pEC50 in the experiment with Ramos cells (Homo sapiens) was 4.80 to 5.30.

As for `Cc1cc(C(=O)N=C(Nc2cc(-c3cc(F)cc(F)c3)n[nH]2)NC(C)C)n(C)n1` [Compound A-81], at F1F0-ATPase, the pIC50 is over 5.30. In the experiment on Ramos cells (Homo sapiens), the pEC50 was 4.80 to 5.30.

For `CCC(C)N/C(=N/C(=O)c1cc(C)oc1C(F)(F)F)Nc1cc(C)n[nH]1` (stereo not drawn) [Compound A-111], at F1F0-ATPase, the pIC50 is 4.80 to 5.30. Besides, the pEC50 in the experiment on Ramos cells was under 4.80.

As for `CC(C)CN/C(=N/C(=O)c1cn(C)nc1C(F)(F)F)Nc1n[nH]c2cc(F)ccc12` [Compound A-205], the pIC50 on F1F0-ATPase was under 4.80. The pEC50 in the experiment with Ramos cells is under 4.80.

Regarding `Cn1cc(C(=O)/N=C(\Nc2cc(-c3ccc(O)c(F)c3)[nH]n2)NC2CCCC2)c(C(F)(F)F)n1` [Compound A-134], the pIC50 on F1F0-ATPase was 4.80 to 5.30. Besides, in the experiment on Ramos cells, the pEC50 is under 4.80.

For `Cn1cc(C(=O)/N=C(\Nc2cc(-c3ccc(O)c(F)c3)n[nH]2)Nc2ccc(F)cc2F)c(C(F)(F)F)n1` [Compound A-169], the pIC50 at F1F0-ATPase was over 5.30. In addition, the pEC50 in the experiment on Ramos cells is over 5.30.

For the compound `CCCn1ccc(C(=O)/N=C(\Nc2cc(-c3ccc(F)cc3)n[nH]2)NC(C)(C)C)n1` [Compound A-58], the pIC50 at F1F0-ATPase is over 5.30. Further, in the experiment with Ramos cells, the pEC50 is over 5.30.

For the compound `CCOCCCN/C(=N\C(=O)c1cn(C)nc1C(F)(F)F)Nc1cc(-c2cc(F)cc(F)c2)n[nH]1` [Compound A-29], on F1F0-ATPase, the pIC50 was over 5.30. Further, in the experiment on Ramos cells, the pEC50 is over 5.30.

As to `Cc1nc(C(=O)/N=C(/NCC(C)C)Nc2cc(-c3ccc(F)cc3)n[nH]2)c(C)o1` [Compound A-193], the pIC50 on F1F0-ATPase was 4.80 to 5.30. Moreover, the pEC50 in the experiment with Ramos cells is 4.80 to 5.30.

With `CCOCCN/C(=N\C(=O)c1cn(C)nc1C(F)(F)F)Nc1cc(-c2cc(F)cc(F)c2)n[nH]1` [Compound A-30], on F1F0-ATPase, the pIC50 is over 5.30. Further, in the experiment with Ramos cells, the pEC50 is over 5.30.

Take `O=C(N=C(Nc1cc(F)cc(Cl)c1)Nc1cc(C(F)(F)F)n[nH]1)c1nccs1` [Compound A-34]: the pIC50 on F1F0-ATPase was over 5.30. In the experiment on Ramos cells (Homo sapiens), the pEC50 is over 5.30.

On to `Cc1cc(C(=O)/N=C(\Nc2ccc(C(F)(F)F)nc2)Nc2cccc(Cl)c2)on1` [Compound A-232], for which, at F1F0-ATPase, the pIC50 was over 5.30. In the experiment with Ramos cells (Homo sapiens), the pEC50 was over 5.30.

As for `Cc1cc(C(=O)/N=C(\Nc2ccc(C(F)(F)F)nc2)Nc2cc(F)cc(Cl)c2)on1` [Compound A-231], at F1F0-ATPase, the pIC50 was over 5.30. For the same compound, in the experiment on Ramos cells (Homo sapiens), the pEC50 is over 5.30.

On to `Cc1oncc1C(=O)/N=C(\Nc1cc(-c2ccc(Cl)cc2)n[nH]1)NC(C)(C)C` [Compound A-68], for which the pIC50 at F1F0-ATPase was over 5.30. Besides, the pEC50 with Ramos cells was over 5.30.

`Cc1cc(N/C(=N\C(=O)c2cc(C)oc2C(F)(F)F)NC(C)(C)C)[nH]n1` [Compound A-107]: the pIC50 at F1F0-ATPase is under 4.80. Further, the pEC50 with Ramos cells is under 4.80.

For `Cc1cc(N/C(=N\C(=O)c2cc(C)oc2C(F)(F)F)NCC(C)C)[nH]n1` [Compound A-109], the pIC50 on F1F0-ATPase was 4.80 to 5.30. Further, the pEC50 in the experiment with Ramos cells is under 4.80.

Take `Cn1cc(C(=O)/N=C(/Nc2cc(-c3ccc(O)cc3F)n[nH]2)Nc2ccccc2Cl)c(C(F)(F)F)n1` [Compound A-3]: the pIC50 on F1F0-ATPase was 4.80 to 5.30. Also, the pEC50 in the experiment on Ramos cells is over 5.30.

For `CCC(C)N/C(=N/C(=O)c1cnoc1C)Nc1cc(-c2ccc(Cl)cc2)n[nH]1` (stereo not drawn) [Compound A-90], the pIC50 on F1F0-ATPase was under 4.80. Also, the pEC50 in the experiment with Ramos cells is under 4.80.

In the case of `Cc1nnsc1C(=O)/N=C(\Nc1cc(-c2ccc(F)cc2)n[nH]1)NC(C)(C)C` [Compound A-47], the pIC50 at F1F0-ATPase is 4.80 to 5.30. Also, the pEC50 in the experiment with Ramos cells is over 5.30.

As to `Cc1nnsc1C(=O)/N=C(/NCC(C)C)Nc1cc(-c2ccc(F)cc2)[nH]n1` [Compound A-120], on F1F0-ATPase, the pIC50 is under 4.80. Also, the pEC50 in the experiment on Ramos cells was under 4.80.

With `CC(C)N/C(=N/C(=O)c1cc(C(C)C)no1)Nc1cc(-c2ccc(F)cc2)n[nH]1` [Compound A-63], at F1F0-ATPase, the pIC50 was over 5.30. The pEC50 with Ramos cells is 4.80 to 5.30.

Take `COc1ccc(F)c(-c2cc(N/C(=N\C(=O)c3cn(C)nc3C(F)(F)F)NC(C)(C)C)n[nH]2)c1` [Compound A-145]: the pIC50 on F1F0-ATPase was 4.80 to 5.30. Moreover, the pEC50 with Ramos cells was 4.80 to 5.30.

On to `CCOCCCN/C(=N\C(=O)c1cnoc1C)Nc1cc(-c2cc(F)cc(F)c2)n[nH]1` [Compound A-1], for which the pIC50 at F1F0-ATPase is under 4.80. Moreover, the pEC50 in the experiment with Ramos cells was under 4.80.

With `Cn1cc(C(=O)/N=C(/Nc2ccc(F)cc2)Nc2cc(-c3ccc(O)c(F)c3)n[nH]2)c(C(F)(F)F)n1` [Compound A-164], on F1F0-ATPase, the pIC50 was over 5.30. Besides, the pEC50 with Ramos cells is over 5.30.

As for `Cc1oncc1C(=O)N=C(NCC(C)C)Nc1cc(-c2cc(F)cc(Cl)c2)n[nH]1` [Compound A-99], the pIC50 at F1F0-ATPase is over 5.30. In addition, the pEC50 in the experiment with Ramos cells (Homo sapiens) is 4.80 to 5.30.
